In patent US7253286B2, “Nitrogen-containing aromatic derivatives” (Eisai Co., Ltd, priority 2000, dated 2007):
Where a name gives a salt, the structure may show the parent alone.

Tested on: Human Umbilical Vein Endothelial Cells (HUVECs)
Test: Inhibition against sandwich tube formation by vascular endothelial cells in response to stimulation by VEGF
Format: cell-based
Conditions: HUVEC in collagen gel sandwich, stimulation by VEGF (25 ng/ml VEGF and 10 ng/ml EGF), 4th day, total tube length, read-out: IC50 (concentration required for 50% inhibition of tube formation)
Protocol: Inhibition Against Sandwich Tube Formation by Vascular Endothelial Cells in Response to Stimulation by Angiogenic Factor
Human Umbilical Vein Endothelial Cells (HUVECS) were isolated by the same method as in Pharmacological Test Example 1, and were cultured in a 5% CO2 incubator (37° C.) using EGM-2 medium (purchased from Clonetics Corp.) until the cells reached confluency.
An ice-cooled mixture of collagen: 5× RPMI 1640: reconstitution buffer (all purchased from Nitta Gelatin, Inc.) at 7:2:1 was dispensed at 0.4 ml into each well of a 24-well plate, and then stationed for 40 minutes in a 5% CO2 incubator (37° C.) for gelling. The HUVECs were recovered using trypsin-EDTA and then suspended in human endothelial serum free medium (SFM, purchased from GIBCO BRL) containing added angiogenic factors [20 ng/ml FGF2 (purchased from GIBCO BRL) and 10 ng/ml EGF (purchased from GIBCO BRL), or 25 ng/ml VEGF (purchased from Wako Pure Chemical Industries Co., Ltd.) and 10 ng/ml EGF, or 30 ng/ml HGF (purchased from R&D Co.) and 10 ng/ml EGF], and the cell suspension was added at 0.4 ml to each well (with the cell counts differing slightly according to the HUVEC lot), and cultured overnight in a 5% CO2 incubator (37° C.). On the following day, the medium on the upper layer was aspirated off, and then 0.4 ml of an ice-cooled mixture of collagen: 5× RPMI 1640: reconstitution buffer (all purchased from Nitta Gelatin, Inc.) at 7:2:1 was superposed into each well prior to stationing for 4 hours in a 5% CO2 incubator (37° C.) for gelling. After adding 1.5 ml of an SFM solution containing each of the aforementioned angiogenic factors and a diluted test substance onto the upper layer, culturing was performed in a 5% CO2 incubator (37° C.). Upon aspirating off the culture supernatant in each well on the 4th day after addition of the test substance, 0.4 ml of a 3.3 mg/ml MTT solution dissolved in PBS (purchased from Sigma Corp.) was added to each well and culturing was performed for approximately 2 hours in a 5% CO2 incubator (37° C.). The tubes formed in the collagen gel of each well were stained by the MTT, the tube images were loaded into a computer (Macintosh), and the total length of the tubes was determined by image analysis software “MacScope” (purchased from Mitani Corp.). The ratio of the total length of the tubes formed in the well containing the test substance with respect to the total length of the tubes formed in the well containing no test substance was expressed as a percentage, and the concentration of each test substance required for 50% inhibition of tube formation (IC50) was determined from the ratio value.

| SMILES | IC50 [nM] |
| --- | --- |
| CNC(=O)c1cc2c(Oc3ccc(NC(=O)NC4CC4)c(Cl)c3)ccnc2cc1OC [Example 442, N6-Methyl-4-(3-chloro-4-(((cyclopropylamino)carbonyl)amino)phenoxy)-7-methoxy-6-quinolinecarboxamide] | 7.2 |
| CCN(CC)CC(O)COc1cc2nccc(Oc3ccc(NC(=O)Nc4ccc(F)cc4)c(F)c3)c2cc1C#N (stereo not shown) [Example 493, N-{4-[6-Cyano-7-(3-diethylamino-2-hydroxypropoxy)quinolin-4-yloxy]-2-fluorophenyl}-N′-(4-fluorophenyl)urea] | 9 |
| CCOCCCNC(=O)n1ccc2cc(Oc3ccnc4cc(OC)c(C(N)=O)cc34)ccc21 [Example 326, 6-Carbamoyl-4-[1-(3-ethoxypropylcarbamoyl)1H-indol-5-yloxy]-7-methoxyquinoline] | 1 |
| CCN(CC)CCCOc1cc2nccc(Oc3ccc4[nH]ccc4c3)c2cc1C#N [Example 296, 7-(3-Diethylaminopropoxy)-4-(1H-indol-5-yloxy)quinoline-6-carbonitrile] | 34 |
| CCCNC(=O)c1cc2c(Oc3ccc(NC(=O)NC4CC4)c(Cl)c3)ccnc2cc1OC [Example 444, N6-Propyl-4-(3-chloro-4-(((cyclopropylamino)carbonyl)amino)phenoxy)-7-methoxy-6-quinolinecarboxamide] | 5.5 |
| CS(=O)(=O)CCCOc1cc2nccc(Oc3ccc(NC(=O)Nc4ccc(F)cc4)cc3)c2cc1C#N [Example 108, N-(4-(6-Cyano-7-(3-(methylsulfonyl)propoxy)-4-quinolyloxy)phenyl)-N′-(4-fluorophenyl)urea] | 4.9 |
| CCN(CC)CCCOc1cc2nccc(Oc3ccc4c(ccn4C(=O)Nc4nccs4)c3)c2cc1C#N [Example 300, 5-[6-Cyano-7-(3 diethylaminopropoxy)quinolin-4-yloxy]indole-1-carboxylic acid (thiazol-2-yl)amide] | 7.5 |
| COCCNC(=O)c1cc2c(Oc3ccc(NC(=O)NC4CC4)c(Cl)c3)ccnc2cc1OCCOC [Example 249, N6-(2-Methoxyethyl)-4-(3-chloro-4-{[(cyclopropylamino)carbonyl]amino}phenoxy)-7-(2-methoxyethoxy)-6-quinolinecarboxamide] | 1.6 |
| COCCOc1cc2nccc(Sc3ccc(NC(=O)Nc4ccccc4F)s3)c2cc1C#N [Example 256, 1-{5-[6-Cyano-7-(2-methoxyethoxy)quinolin-4-ylsulfanyl]thiophen-2-yl}-3-(2-fluorophenyl)urea] | 36 |
| CCN(CC)CCCNC(=O)n1ccc2cc(Oc3ccnc4cc(OC)c(C(N)=O)cc34)ccc21 [Example 327, 6-Carbamoyl-4-[1-(3-diethylaminopropylcarbamoyl)1H-indol-5-yloxy]-7-methoxyquinoline] | 56 |
| O=C(C1CC1)N(C(=O)C1CC1)c1cc(Oc2ccc3c(ccn3C(=O)NC3CC3)c2)ccn1 [Example 211, N1-Cyclopropyl-5-({2-[di(cyclopropylcarbonyl)amino]-4-pyridyl}oxy)-1H-1-indolecarboxamide] | 0.3 |
| COc1cc2nccc(Oc3ccc(NC(=O)NC4CC4)c(Cl)c3)c2cc1C(=O)NCC1CC1 [Example 446, N6-Cyclopropylmethyl-4-(3-chloro-4-(((cyclopropylamino)carbonyl)amino)phenoxy)-7-methoxy-6-quinolinecarboxamide] | 4 |
| COc1cc2nccc(Oc3ccc(NC(=O)NC4CC4)c(Cl)c3)c2cc1C(=O)NC[C@H]1CCCO1 [Example 450, N6-((2R)Tetrahydro-2-furanylmethyl)-4-(3-chloro-4-(((cyclopropylamino)carbonyl)amino)phenoxy)-7-methoxy-6-quinolinecarboxamide] | 4.5 |
| COc1cc2nccc(Oc3ccc(NC(=O)NC4CC4)c(C)c3C)c2cc1C(N)=O [Example 490, N-[4-(6-Carbamoyl-7-methoxy-4-quinolyl)oxy-2,3-dimethylphenyl]-N′-cyclopropylurea] | 26 |
| CONC(=O)c1cc2c(Oc3ccc4c(ccn4C(=O)NC4CC4)c3)ccnc2cc1OC [Example 521, 6-Methoxycarbamoyl-7-methoxy-4-((1-cyclopropylcarbamoyl)indol-5-yloxy)quinoline] | 0.5 |
| O=C(Nc1cc(Oc2ccc3c(ccn3C(=O)NCCF)c2)ccn1)C1CC1 [Example 215, N1-(2-Fluoroethyl)-5-({2-[(cyclopropylcarbonyl)amino]-4-pyridyl}oxy)-1H-1-indolecarboxyamide] | 22 |

| SMILES | IC50 [nM] |
| --- | --- |
| COCCOc1cc2nccc(Oc3ccc(NC(=O)Nc4nccs4)cc3)c2cc1C#N [Example 12, N-(4-(6-cyano-7-(2-methoxyethoxy)-4-quinolyl)oxyphenyl)-N′-(1,3-thiazol-2-yl)urea] | 44 |
| COc1cc2nccc(Oc3ccc4c(ccn4C(=O)NC(C)C)c3)c2cc1C(N)=O [Example 320, 6-Carbamoyl-7-methoxy-4-[1-(1-methyl)ethylcarbamoyl-1H-indol-5-yloxy]quinoline] | 2.5 |
| CN1CCC(C(=O)Nc2cc(Oc3ccc(NC(=O)Nc4ccc(F)cc4)c(Cl)c3)ccn2)CC1 [Example 202, N4-[4-(3-Chloro-4-{[(4-fluoroanilino)carbonyl]amino}phenoxy)-2-pyridyl]-1-methyl-4-piperidinecarboxamide] | 15 |
| NC(=O)c1cc2c(Oc3ccc(NC(=O)NC4CC4)c(Cl)c3)ccnc2cc1OCCO [Example 386, 4-(3-Chloro-4-(cyclopropylaminocarbonyl)aminophenoxy)-7-(2-hydroxyethoxy)-6-quinolinecarboxamide] | 10 |
| CCN(CC)CCCOc1cc2nccc(Oc3ccc(NC(=O)NC4CC4)c(Cl)c3)c2cc1C#N [Example 419, N-(2-Chloro-4-((6-cyano-7-(3-(diethylamino)propoxy)-4-quinolyl)oxy)phenyl)-N′-cyclopropylurea] | 10 |
| CN1CCC(CC(=O)Nc2cc(Oc3ccc4c(ccn4C(=O)Nc4ccccc4)c3)ccn2)CC1 [Example 204, N1-Phenyl-5-[(2-{[2-(1-methyl-4-piperidyl)acetyl]amino}-4-pyridyl)oxy]-1H-1-indolecarboxamide] | 0.9 |
| COc1cc(Nc2cc(Oc3ccc(NC(=O)Nc4ccccc4)cc3)ncn2)cc(OC)c1OC [Example 578, N-Phenyl-N′-(4-(6-(3,4,5-trimethoxyphenylamino)pyrimidin-4-yloxy)phenyl)urea hydrochloride] | 13 |
| COC(=O)c1cc2c(Oc3ccc(N(C)C(=O)Nc4ccc(F)cc4)cc3)ccnc2cc1OC [Example 433, Methyl 4-(4-(((4-fluoroanilino)carbonyl)(methyl)amino)phenoxy)-7-methoxy-6-quinoline carboxylate] | 5.6 |
| N#Cc1cc2c(Oc3ccc(NC(=O)Nc4ccc(F)cc4)c(F)c3)ccnc2cc1OCC(O)CN1CCCC1 (stereo not shown) [Example 492, N-{4-[6-Cyano-7-(2-hydroxy-3-(pyrrolidin-1-yl)propoxy)quinolin-4-yloxy]-2-fluorophenyl}-N′-(4-fluorophenyl)urea] | 7.2 |
| CCN(CC)CCCOc1cc2nccc(Oc3ccc(NC(=O)NC4CC4)c(F)c3)c2cc1C(N)=O [Example 372, 4-(4-(Cyclopropylaminocarbonyl)amino-3-fluorophenoxy)-7-(3-(N,N-diethylamino)propoxy)-6-quinolinecarboxamide] | 44 |
| CCNC(=O)n1ccc2cc(Oc3ccnc4cc(OC)c(C(=O)NOC)cc34)ccc21 [Example 520, 6-Methoxycarbamoyl-7-methoxy-4-((1-ethylcarbamoyl)indol-5-yloxy)quinoline] | 1.5 |
| O=C(Nc1ccc(Oc2ncnc3[nH]c(-c4ccc(OCCCN5CCCC5)cc4)cc23)cc1Cl)NC1CC1 [Example 155] | 1.4 |
| N#Cc1cc2c(Oc3ccc(NC(=O)Nc4ccc(F)cc4)c(F)c3)ccnc2cc1OCCCC(=O)NC1CC1 [Example 137, N-(4-(6-Cyano-7-(3-((cyclopropylamino)carbonyl)propoxy)-4-quinolyl)oxy-2-fluorophenyl)-N′-(4-fluorophenyl)urea] | 10 |
| COCCOc1cc2nccc(Oc3ccc(NC(=O)Nc4cccc(C#N)c4)cc3)c2cc1C#N [Example 19, N-(4-(6-Cyano-7-(2-methoxyethoxy)-4-quinolyl)oxyphenyl)-N′-(3-cyanophenyl)urea] | 28 |
| COCCNC(=O)c1cc2c(Oc3ccc(N(C)C(=O)Nc4ccc(F)cc4)cc3)ccnc2cc1OC [Example 436, N6-(2-Methoxyethyl)-4-(4-(((4-fluoroanilino)carbonyl)(methyl)amino)phenoxy)-7-methoxy-6-quinolinecarboxamide] | 22 |
